Assay results published in patent publication US10435405B2, “Pyrazolopyridine compounds and uses thereof” (Incyte Corporation, priority 2016, dated 2019).

Molecular target: HPK1 (Homo sapiens (Human), UniProt Q92918)
Assay: HPK1 Kinase Binding Assay
Experimental: A stock solution of 1 mM test compound was prepared in DMSO. The compound plate was prepared by 3-fold and 11-point serial dilutions. 0.1 μL of the compound in DMSO was transferred from the compound plate to the white 384 well polystyrene plates. The assay buffer contained 50 mM HEPES, pH 7.5, 0.01% Tween-20, 5 mM MgCl2, 0.01% BSA, and 5 mM DTT. 5 μl of 4 nM active HPK1 (SignalChem M23-11G) prepared in the buffer was added to the plate. The enzyme concentration given was based on the given stock concentration reported by the vender. 5 μl of 18 nM tracer 222 (ThermoFisher PV6121) and 4 nM LanthaScreen Eu-Anti GST antibody (ThermoFisher PV5595) were added. After one hour incubation at 25° C., the plates were read on a PHERAstar FS plate reader (BMG Labtech). Ki values were determined.

Sequence of HPK1 (Q92918 1-346): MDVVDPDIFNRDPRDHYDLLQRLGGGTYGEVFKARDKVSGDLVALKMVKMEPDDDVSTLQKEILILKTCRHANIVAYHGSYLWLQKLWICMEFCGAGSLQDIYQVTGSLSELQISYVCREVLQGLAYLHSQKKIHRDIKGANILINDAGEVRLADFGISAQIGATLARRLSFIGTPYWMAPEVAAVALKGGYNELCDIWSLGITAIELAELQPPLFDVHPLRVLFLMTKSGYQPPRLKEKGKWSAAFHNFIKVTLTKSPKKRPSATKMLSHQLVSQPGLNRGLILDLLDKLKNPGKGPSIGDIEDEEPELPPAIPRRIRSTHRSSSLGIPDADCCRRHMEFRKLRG

Row | Ki [nM] | Structure (SMILES)
1 | ≤ 100 | COC1CN(Cc2cc(C)c(-c3cc4c(-c5cnn(C)c5)n[nH]c4cn3)c(F)c2)C1 [Example 185, 5-(2-Fluoro-4-((3-methoxyazetidin-1-yl)methyl)-6-methylphenyl)-3-(1-methyl-1H-pyrazol-4-yl)-1H-pyrazolo[3,4-c]pyridine]
2 | ≤ 100 | CNC1CCc2c1cc(C)c(-c1cc3c(-c4cnn(C)c4)n[nH]c3cn1)c2F (single isomer, unassigned) [Example 238, 4-Fluoro-N,6-dimethyl-5-(3-(1-methyl-1H-pyrazol-4-yl)-1H-pyrazolo[3,4-c]pyridin-5-yl)-2,3-dihydro-1H-inden-1-amine]
3 | ≤ 100 | Cn1cc(-c2n[nH]c3cnc(-c4c(F)cc(NC(=O)CN5CCCC5)cc4F)cc23)cn1 [Example 64, N-(3,5-Difluoro-4-(3-(1-methyl-1H-pyrazol-4-yl)-1H-pyrazolo[3,4-c]pyridin-5-yl)phenyl)-2-(pyrrolidin-1-yl)acetamide]
4 | ≤ 100 | COc1cc(N2CCN(C)CC2)ccc1C(=O)Nc1n[nH]c2cnc(-c3c(F)cc(CNC(C)C)cc3F)cc12 [Example 149, N-(5-(2,6-Difluoro-4-((isopropylamino)methyl)phenyl)-1H-pyrazolo[3,4-c]pyridin-3-yl)-2-methoxy-4-(4-methylpiperazin-1-yl)benzamide]
5 | ≤ 100 | CNC(=O)c1ccc(-c2n[nH]c3cnc(-c4c(F)cc5c(c4F)C(NC)CC5)cc23)cc1 (centres unmarked) [Example 204, 4-(5-(4,6-Difluoro-3-(methylamino)-2,3-dihydro-1H-inden-5-yl)-1H-pyrazolo[3,4-c]pyridin-3-yl)-N-methylbenzamide]
6 | ≤ 100 | COc1cccc(F)c1-c1cc2c(C(=O)Nc3ccc(N4CCOCC4)cc3)n[nH]c2cn1 [Example 55, 5-(2-Fluoro-6-methoxyphenyl)-N-(4-morpholinophenyl)-1H-pyrazolo[3,4-c]pyridine-3-carboxamide]
7 | ≤ 100 | CNCc1cc(F)c(-c2cc3c(-c4ccc(C5CC5)nc4)n[nH]c3cn2)c(C(F)(F)F)c1 [Example 120, 1-(4-(3-(6-Cyclopropylpyridin-3-yl)-1H-pyrazolo[3,4-c]pyridin-5-yl)-3-fluoro-5-(trifluoromethyl)phenyl)-N-methylmethanamine]
8 | ≤ 100 | Cn1cc(-c2n[nH]c3cnc(-c4c(F)cc(OCc5ccncc5)cc4F)cc23)cn1 [Example 108, 5-(2,6-Difluoro-4-(pyridin-4-ylmethoxy)phenyl)-3-(1-methyl-1H-pyrazol-4-yl)-1H-pyrazolo[3,4-c]pyridine]
9 | ≤ 100 | CNCc1cc(F)c(-c2cc3c(NC(=O)c4cnn(C)c4)n[nH]c3cn2)c(F)c1 [Example 144, N-(5-(2,6-Difluoro-4-((methylamino)methyl)phenyl)-1H-pyrazolo[3,4-c]pyridin-3-yl)-1-methyl-1H-pyrazole-4-carboxamide]
10 | ≤ 100 | CNCc1cc(F)c(-c2cc3c(-c4ccc(N5CCN(C)CC5)nc4)n[nH]c3cn2)c(C(F)(F)F)c1 [Example 119, 1-(3-Fluoro-4-(3-(6-(4-methylpiperazin-1-yl)pyridin-3-yl)-1H-pyrazolo[3,4-c]pyridin-5-yl)-5-(trifluoromethyl)phenyl)-N-methylmethanamine]
11 | ≤ 100 | CNCc1cc(F)c(-c2cc3c(-c4cnn(-c5ccccc5C#N)c4)n[nH]c3cn2)c(F)c1 [Example 161, 2-(4-(5-(2,6-Difluoro-4-((methylamino)methyl)phenyl)-1H-pyrazolo[3,4-c]pyridin-3-yl)-1H-pyrazol-1-yl)benzonitrile]
12 | ≤ 100 | CN1CCN(c2ncc(-c3n[nH]c4cnc(-c5c(F)cc(CC#N)cc5F)cc34)cn2)CC1 [Example 211, 2-(3,5-Difluoro-4-(3-(2-(4-methylpiperazin-1-yl)pyrimidin-5-yl)-1H-pyrazolo[3,4-c]pyridin-5-yl)phenyl)acetonitrile]
13 | ≤ 100 | Cc1cc(CNC(C)C)cc(F)c1-c1cc2c(-c3cnn(C)c3)n[nH]c2cn1 [Example 178, N-(3-Fluoro-5-methyl-4-(3-(1-methyl-1H-pyrazol-4-yl)-1H-pyrazolo[3,4-c]pyridin-5-yl)benzyl)propan-2-amine]
14 | ≤ 100 | CCN1CCN(c2ccc(C(=O)Nc3n[nH]c4cnc(-c5c(F)cccc5OC)cc34)cc2)CC1 [Example 28, 4-(4-Ethylpiperazin-1-yl)-N-(5-(2-fluoro-6-methoxyphenyl)-1H-pyrazolo[3,4-c]pyridin-3-yl)benzamide]
15 | ≤ 100 | COc1cccc(F)c1-c1cc2c(NC(=O)c3cnn(C)c3)n[nH]c2cn1 [Example 14, N-(5-(2-Fluoro-6-methoxyphenyl)-1H-pyrazolo[3,4-c]pyridin-3-yl)-1-methyl-1H-pyrazole-4-carboxamide]
16 | ≤ 100 | COC(=O)NCc1cc(C)c(-c2cc3c(-c4cnn(C)c4)n[nH]c3cn2)c(F)c1 [Example 192, Methyl 3-fluoro-5-methyl-4-(3-(1-methyl-1H-pyrazol-4-yl)-1H-pyrazolo[3,4-c]pyridin-5-yl)benzylcarbamate]

Row | Ki [nM] | Structure (SMILES)
17 | ≤ 100 | CN1CCN(c2ccc(C(=O)Nc3n[nH]c4cnc(-c5c(F)cc(NC(=O)CN6CCCC6)cc5F)cc34)cc2)CC1 [Example 156, N-(5-(2,6-Difluoro-4-(2-(pyrrolidin-1-yl)acetamido)phenyl)-1H-pyrazolo[3,4-c]pyridin-3-yl)-4-(4-methylpiperazin-1-yl)benzamide]
18 | ≤ 100 | CNC(=O)c1ccc(-c2n[nH]c3cnc(-c4c(F)cccc4OC)cc23)cn1 [Example 101, 5-(5-(2-Fluoro-6-methoxyphenyl)-1H-pyrazolo[3,4-c]pyridin-3-yl)-N-methylpicolinamide]
19 | ≤ 100 | Cn1cc(-c2n[nH]c3cnc(-c4c(F)ccc(CCNC5CCOCC5)c4F)cc23)cn1 [Example 98, N-(2,4-Difluoro-3-(3-(1-methyl-1H-pyrazol-4-yl)-1H-pyrazolo[3,4-c]pyridin-5-yl)phenethyl)tetrahydro-2H-pyran-4-amine]
20 | ≤ 100 | CN1CCN(c2ccc(-c3n[nH]c4cnc(-c5c(F)cc6c(c5F)C(O)CC6)cc34)cn2)CC1 (centres unmarked) [Example 213, 5,7-Difluoro-6-(3-(6-(4-methylpiperazin-1-yl)pyridin-3-yl)-1H-pyrazolo[3,4-c]pyridin-5-yl)-2,3-dihydro-1H-inden-1-ol]
21 | ≤ 100 | COc1cccc(F)c1-c1cc2c(NC(=O)c3ccn(C)n3)n[nH]c2cn1 [Example 15, N-(5-(2-Fluoro-6-methoxyphenyl)-1H-pyrazolo[3,4-c]pyridin-3-yl)-1-methyl-1H-pyrazole-3-carboxamide]
22 | ≤ 100 | COc1cccc(F)c1-c1cc2c(-c3ccc(N4CCN(C)CC4)cc3)n[nH]c2cn1 [Example 43, 5-(2-Fluoro-6-methoxyphenyl)-3-(4-(4-methylpiperazin-1-yl)phenyl)-1H-pyrazolo[3,4-c]pyridine]
23 | ≤ 100 | CN1CCN(c2ccc(-c3n[nH]c4cnc(-c5c(F)cccc5C(F)(F)F)cc34)cc2)CC1 [Example 53, 5-(2-Fluoro-6-(trifluoromethyl)phenyl)-3-(4-(4-methylpiperazin-1-yl)phenyl)-1H-pyrazolo[3,4-c]pyridine]
24 | ≤ 100 | Cn1cc(-c2n[nH]c3cnc(-c4cccc(CN5CCC5)c4C(F)(F)F)cc23)cn1 [Example 89, 5-(3-(Azetidin-1-ylmethyl)-2-(trifluoromethyl)phenyl)-3-(1-methyl-1H-pyrazol-4-yl)-1H-pyrazolo[3,4-c]pyridine]
25 | ≤ 100 | Cc1c(CNC2CC(C)(C)C2)ccc(F)c1-c1cc2c(-c3cnn(C)c3)n[nH]c2cn1 [Example 223, N-(4-Fluoro-2-methyl-3-(3-(1-methyl-1H-pyrazol-4-yl)-1H-pyrazolo[3,4-c]pyridin-5-yl)benzyl)-3,3-dimethylcyclobutanamine]
26 | ≤ 100 | Cn1cc(-c2n[nH]c3cnc(-c4c(F)cc(CNCCO)cc4F)cc23)cn1 [Example 126, 2-(3,5-Difluoro-4-(3-(1-methyl-1H-pyrazol-4-yl)-1H-pyrazolo[3,4-c]pyridin-5-yl)benzylamino)ethanol]
27 | ≤ 100 | COc1cccc(F)c1-c1cc2c(-c3cccc(C4CCN(C)CC4)n3)n[nH]c2cn1 [Example 115, 5-(2-Fluoro-6-methoxyphenyl)-3-(6-(1-methylpiperidin-4-yl)pyridin-2-yl)-1H-pyrazolo[3,4-c]pyridine]
28 | ≤ 100 | CNC(C)c1cc(C)c(-c2cc3c(-c4cnn(C5CC5)c4)n[nH]c3cn2)c(F)c1 (single isomer, unassigned) [Example 229, 1-(4-(3-(1-Cyclopropyl-1H-pyrazol-4-yl)-1H-pyrazolo[3,4-c]pyridin-5-yl)-3-fluoro-5-methylphenyl)-N-methylethanamine]
29 | ≤ 100 | Cn1cc(-c2n[nH]c3cnc(-c4c(F)cc(CNc5ccccn5)cc4F)cc23)cn1 [Example 124, N-(3,5-Difluoro-4-(3-(1-methyl-1H-pyrazol-4-yl)-1H-pyrazolo[3,4-c]pyridin-5-yl)benzyl)pyridin-2-amine]
30 | ≤ 100 | CCNCc1cc(C)c(-c2cc3c(-c4cnn(C)c4)n[nH]c3cn2)c(F)c1 [Example 176, N-(3-Fluoro-5-methyl-4-(3-(1-methyl-1H-pyrazol-4-yl)-1H-pyrazolo[3,4-c]pyridin-5-yl)benzyl)ethanamine]
31 | ≤ 100 | Cc1c(CN2CC(C)(C)C2)ccc(F)c1-c1cc2c(-c3cnn(C)c3)n[nH]c2cn1 [Example 221, 5-(3-((3,3-Dimethylazetidin-1-yl)methyl)-6-fluoro-2-methylphenyl)-3-(1-methyl-1H-pyrazol-4-yl)-1H-pyrazolo[3,4-c]pyridine]

Row | Structure (SMILES) | Ki [nM]
32 | Cc1cc(NC(=O)CN2C3CCC2CC3)cc(F)c1-c1cc2c(-c3cnn(C)c3)n[nH]c2cn1 [Example 82, 2-(7-Azabicyclo[2.2.1]heptan-7-yl)-N-(3-fluoro-5-methyl-4-(3-(1-methyl-1H-pyrazol-4-yl)-1H-pyrazolo[3,4-c]pyridin-5-yl)phenyl)acetamide] | ≤ 100
